The values below come from PMC4865820, “Branched Peptide, B2088, Disrupts the Supramolecular Organization of Lipopolysaccharides and Sensitizes the Gram-negative Bacteria” (Scientific Reports, 2016).

Positions of bridges follow the written chain, without caps; N, C: chain ends. Residues, ends and D or L forms follow the SMILES beside them. Chains are numbered I, II in the order given.

Test [1] concerns LPS (E. coli serotype 055:B5). In words: BODIPY TR cadaverine (BC) displacement assay with LPS. As to conditions: no unit in table; ED50 values in μM; 5 mM HEPES pH 7.4; duplicates; read-out: BC50 (LPS binding). The class given is binding. The method, boiled down:
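Peptides (0.02–25.6 μM, two-fold dilutions) mixed 1:1 with BODIPY TR cadaverine:LPS (E. coli 055:B5) mixture in 5 mM HEPES pH 7.4; fluorescence at 580/620 nm. Displacement normalized to polymyxin B (Fmax) and probe:LPS alone (F0); ED50 from curve fit, duplicates.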

Test [2] has as its system P. aeruginosa ATCC 27853. In words: microbe, parasite or virus in culture. The class given is cell-based. As to conditions: ATCC 27853, 24 h. The method, then:
(§1) MIC of each peptide was determined using the microdilution method in a 96 well microtitre plates (SPL Life Sciences Co., Ltd, Korea). Two-fold serial dilutions of each peptide in Mueller-Hinton Broth (MHB) was prepared from a 1 mg/ml stock solution of the peptide in the same broth, to obtain a final concentration in the range of 0.0976–50 μg/ml in each well. Bacterial suspensions (P. aeruginosa ATCC 27853, P. aeruginosa 4877, P. aeruginosa 23155, K. pneumoniae ATCC 10031 and K. pneumoniae 4299) were prepared by suspending the overnight cultured bacteria in saline and adjusting the inoculum to ~10^8 colony forming units (CFU) per ml. A further 150-fold dilution was then prepared in MHB to achieve a final cell density of 10^5–10^6 CFU/ml. In each well, 100 μl of inoculum was mixed with the equal volume of peptides at their 2× concentration. Positive and negative controls contained 200 μl of inoculum (without any peptide) and broth alone (no peptide/inoculum) respectively. Another negative control in which MHB containing 200 μl of peptide alone in its highest concentration tested (50 μg/ml) was also included to ensure that the optical density measured in the test wells was not due to turbidity of the peptides in solution. The 96 well polystyrene plates were then incubated at 37 °C for 24 h and the optical density at 600 nm (OD600) was measured every 30 min continuously using a TECAN microplate reader (TECAN Infinite 200, Austria). All the experiments were performed in two independent duplicates and the MIC was determined as the lowest peptide concentration in which no visible growth was observed.

Test [3] relates to K. pneumoniae ATCC10031. Type of test: cell-based. As to conditions: ATCC10031, 24 h. The procedure: as §1
For test [4], the system named is P. aeruginosa 23155. The class given is cell-based. The settings on record: 23155, 24 h. The method, then: as §1
Test [5] has as its system P. aeruginosa ATCC 9027. In words: Outer membrane permeability assay (NPN). The class given is cell-based. As to conditions: no unit in table; Fig. S5 axis [Peptide], μM; 10 μM NPN, 5 mM HEPES pH 7.4, ex 355/em 405 nm; average of two titrations; read-out: PC50 (peptide concentration for half-maximal NPN intensity, OM permeability). The procedure:
The ability of each peptide to permeabilize the OM of Gram-negative organisms was determined using the hydrophobic fluorescent probe 1-N-phenylnaphthylamine (NPN) as previously reported. P. aeruginosa ATCC 9027 cells from an overnight MHB culture were harvested after centrifuging at 3000 rpm for 10 minutes. The pellet was washed twice, suspended in 5 mM HEPES (N- 2-hydroxyethylpiperazine-N’-2 ethanesulfonic acid) buffer (pH 7.4) and adjusted to an OD600 of 0.200. A suspension containing 600 μl of bacteria cells and 1 μl of a concentrated stock solution of NPN was mixed into a 10 mm stirred quartz cuvette so that the final concentration of the probe remained 10 μM. Aliquots containing 1 μl of each peptide in various concentrations (100, 50, 25, 15, 10, 5, 2.5 and 1 μg/ml) were added upon NPN dye stabilization. The fluorescence intensity was monitored using a Quanta Master spectrophotometer with a constant slit width of 0.5 nm, excitation and emission wavelengths set at 355 nm and 405 nm respectively. The peptide concentration required for half-maximal intensity (PC50) was determined by sigmoidal curve fitting using Graphpad Prism software. The experimental data is average of two independent titration experiments.

For test [6], the system named is K. pneumonia 4299. The experiment in a line: microbe, parasite or virus in culture. The class given is cell-based, K. pneumoniae. As to conditions: 24 h. The procedure:
as §1

Test [7] deals with P. aeruginosa ATCC 27853. The class given is cell-based. The settings on record: ATCC 27853; for Fractional inhibitory concentration of peptide/PMB, combination with Genta: first number in parenthesis; for Fractional inhibitory concentration of antibiotic, Genta combination: second number in parenthesis. The method, boiled down:
(§2)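 Checkerboard combinations of peptide and antibiotic, each 2-fold diluted up to 1× MIC in MHB, were tested against ~10^6 CFU/ml final inoculum. Plates were incubated 24 h at 37 °C, with growth read at OD600. FICI was the sum of the combination-to-alone MIC ratios for each agent, and the lowest FICI from duplicate experiments was reported.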

Test [8] has as its system P. aeruginosa DR4877/07. Type of test: cell-based. As to conditions: for Fractional inhibitory concentration of peptide/PMB, combination with Chloarm / Fractional inhibitory concentration of peptide/PMB, combination with Erythro / Fractional inhibitory concentration of peptide/PMB, combination with Levo / Fractional inhibitory concentration of peptide/PMB, combination with Tobra: first number in parenthesis; for Fractional inhibitory concentration of antibiotic, Chloarm combination / Fractional inhibitory concentration of antibiotic, Erythro combination / Fractional inhibitory concentration of antibiotic, Levo combination / Fractional inhibitory concentration of antibiotic, Tobra combination: second number in parenthesis. In outline: as §2

For `N=C(N)NCCC[C@H](NC(=O)CNC(=O)[C@@H](N)CCCNC(=N)N)C(=O)N[C@@H](CCCCN)C(=O)N[C@@H](Cc1c[nH]c2ccccc12)C(=O)N[C@@H](Cc1c[nH]c2ccccc12)C(=O)N[C@@H](CCCNC(=N)N)C(=O)N[C@@H](CCCNC(=N)N)C(=O)NCCCC[C@H](NC(=O)[C@H](CCCNC(=N)N)NC(=O)[C@H](CCCNC(=N)N)NC(=O)[C@H](Cc1c[nH]c2ccccc12)NC(=O)[C@H](Cc1c[nH]c2ccccc12)NC(=O)[C@H](CCCCN)NC(=O)[C@H](CCCNC(=N)N)NC(=O)CNC(=O)[C@@H](N)CCCNC(=N)N)C(=O)N[C@@H](CCCCN)C(=O)O` (I: H-RGRKWWRRKK-OH / II: H-RGRKWWRR; amide I:9-II:C; N-terminus and C-terminus assumed), the EC50 in test [1] was determined as 6.8 ± 0.12 µM. Further, in test [2], the “Minimum Inhibitory Concentration against P. aeruginosa ATCC 27853” value was found to be 9.5 µM. In addition, the “Minimum Inhibitory Concentration against K. pneumoniae ATCC10031” value in test [3] stood at 9.5 µM. Further, the “Minimum Inhibitory Concentration against P. aeruginosa 23155” value in test [4] stood at 9.5 µM. Also, the EC50 in test [5] was 31.1 ± 4.6 µM. The “Minimum Inhibitory Concentration against K. pneumonia 4299” value in test [6] came out at 19 µM. Further, in test [7], the “Fractional inhibitory concentration of peptide/PMB, combination with Genta” value is on record as 0.5 and the “Fractional inhibitory concentration of antibiotic, Genta combination” value is reported as 0.06. Also, in test [8], the “Fractional inhibitory concentration of peptide/PMB, combination with Chloarm” value was 0.5; the “Fractional inhibitory concentration of peptide/PMB, combination with Erythro” value is recorded as “(0.5,0.5)”; the “Fractional inhibitory concentration of peptide/PMB, combination with Levo” value was determined as 0.5; the “Fractional inhibitory concentration of peptide/PMB, combination with Tobra” value turned out to be 0.5. Moreover, in test [8], the “Fractional inhibitory concentration of antibiotic, Chloarm combination” value was determined as 0.13; the “Fractional inhibitory concentration of antibiotic, Erythro combination” value is “(0.5,0.5)”; the “Fractional inhibitory concentration of antibiotic, Levo combination” value came to 0.25; the “Fractional inhibitory concentration of antibiotic, Tobra combination” value came to 0.25.

In the case of `N=C(N)NCCC[C@H](NC(=O)CNC(=O)[C@@H](N)CCCNC(=N)N)C(=O)N[C@@H](CCCCN)C(=O)N[C@@H](Cc1ccc(O)cc1)C(=O)N[C@@H](Cc1ccc(O)cc1)C(=O)N[C@@H](CCCNC(=N)N)C(=O)N[C@@H](CCCNC(=N)N)C(=O)NCCCC[C@H](NC(=O)[C@H](CCCNC(=N)N)NC(=O)[C@H](CCCNC(=N)N)NC(=O)[C@H](Cc1ccc(O)cc1)NC(=O)[C@H](Cc1ccc(O)cc1)NC(=O)[C@H](CCCCN)NC(=O)[C@H](CCCNC(=N)N)NC(=O)CNC(=O)[C@@H](N)CCCNC(=N)N)C(=O)N[C@@H](CCCCN)C(=O)O` (I: H-RGRKYYRRKK-OH / II: H-RGRKYYRR; amide I:9-II:C; N-terminus and C-terminus assumed), the EC50 in test [1] was determined as 2.5 ± 0.04 µM. Further, in test [2], the “Minimum Inhibitory Concentration against P. aeruginosa ATCC 27853” value is 4.5 µM. In addition, in test [3], the “Minimum Inhibitory Concentration against K. pneumoniae ATCC10031” value is 4.5 µM. Further, in test [4], the “Minimum Inhibitory Concentration against P. aeruginosa 23155” value was 4.5 µM. The EC50 in test [5] worked out at 21.9 ± 0.2 µM. The “Minimum Inhibitory Concentration against K. pneumonia 4299” value in test [6] was determined as 9.0 µM. In test [7], the “Fractional inhibitory concentration of peptide/PMB, combination with Genta” value is given as “(0.25,0.25)” and the “Fractional inhibitory concentration of antibiotic, Genta combination” value was “(0.25,0.25)”. In test [8], the “Fractional inhibitory concentration of peptide/PMB, combination with Chloarm” value is recorded as 0.25; the “Fractional inhibitory concentration of peptide/PMB, combination with Erythro” value worked out at 0.5; the “Fractional inhibitory concentration of peptide/PMB, combination with Levo” value was determined as 0.5; the “Fractional inhibitory concentration of peptide/PMB, combination with Tobra” value is given as 0.25. For the same molecule, in test [8], the “Fractional inhibitory concentration of antibiotic, Chloarm combination” value is on record as 0.13; the “Fractional inhibitory concentration of antibiotic, Erythro combination” value was found to be 0.06; the “Fractional inhibitory concentration of antibiotic, Levo combination” value was determined as 0.25; the “Fractional inhibitory concentration of antibiotic, Tobra combination” value is 0.13.
